Results: paper PMC8252455, “Prediction of a clinically effective dose of THY1773, a novel V 1B receptor antagonist, based on preclinical data” (Biopharmaceutics & Drug Disposition, 2021)

Biological target: T1, CYP2D6 (Homo sapiens, UniProt P10635)
T1 construct: THY1773 (500 nmol/L) was incubated with pooled HLMs (0.5 mg protein/ml); tissue Sekisui XenoTech, LLC; host or cells: pooled human liver microsomes (50 donors)
Test: Reaction phenotyping in HLMs with quinidine
Format: in vitro ADME
Experimental: Reaction phenotyping using cDNA expressed recombinant human CYP isoforms, CYP1A2, CYP2B6, CYP2C8, CYP2C9, CYP2C19, CYP2D6, and CYP3A4, was conducted. Each recombinant enzyme (100 pmol/ml) in potassium phosphate buffer (pH 7.4; 100 mmol/L for CYP3A4, 50 mmol/L for the others) was preincubated with [^3H]THY1773 (10 μmol/L) at 37°C for 5 min. The reactions were initiated by the addition of NADPH‐generating system (1 mmol/L NADP^+, 5 mmol/L G‐6‐P, 1 unit/ml G‐6‐PDH, and 5 mmol/L MgCl2) and incubated for 0 or 60 min. The reactions were terminated by the addition of an equal volume of acetonitrile/methanol (9:1, vol/vol), followed by centrifugation at 1650 × g for 10 min at 4°C. An aliquot of the supernatant was subjected to an Agilent 1200 HPLC system (Agilent Technologies, Inc.) equipped with a radiochemical flow detector (Radiomatic 625TR; Perkin Elmer, Inc.), and formation of metabolites was evaluated. Reaction phenotyping study was also conducted using HLMs and selective chemical inhibitors for CYP2D6 and CYP3A, which were assumed to have significant roles in THY1773 metabolism from recombinant metabolic stability. Quinidine (1 μmol/L) for CYP2D6 and ketoconazole (1 μmol/L) for CYP3A were used as selective inhibitors. THY1773 (500 nmol/L) was incubated with pooled HLMs (0.5 mg protein/ml) in potassium phosphate buffer (100 mmol/L, pH 7.4) in the absence or presence of the selective inhibitors. The reactions were initiated by the addition of NADPH generating system (1.3 mmol/L β‐NADP^+, 3.3 mmol/L G‐6‐P, 3.3 mmol/L MgCl2, and 0.4 units/ml G‐6‐PDH), and incubated at 37°C for 30 min. The reactions were terminated by the addition of two volumes of acetonitrile/methanol (9:1, vol/vol) containing the IS. […] The CLint was calculated by the method as described previously under metabolic stability in animal liver microsomes, and the fraction metabolized (fm) was calculated by Equation (1): (1) fm=1−(CLint, with inh/CLint) where CLint is intrinsic clearance without specific inhibitor and CLint,with inh is intrinsic clearance in the presence of specific inhibitor.

T1 sequence (P10635 whole entry): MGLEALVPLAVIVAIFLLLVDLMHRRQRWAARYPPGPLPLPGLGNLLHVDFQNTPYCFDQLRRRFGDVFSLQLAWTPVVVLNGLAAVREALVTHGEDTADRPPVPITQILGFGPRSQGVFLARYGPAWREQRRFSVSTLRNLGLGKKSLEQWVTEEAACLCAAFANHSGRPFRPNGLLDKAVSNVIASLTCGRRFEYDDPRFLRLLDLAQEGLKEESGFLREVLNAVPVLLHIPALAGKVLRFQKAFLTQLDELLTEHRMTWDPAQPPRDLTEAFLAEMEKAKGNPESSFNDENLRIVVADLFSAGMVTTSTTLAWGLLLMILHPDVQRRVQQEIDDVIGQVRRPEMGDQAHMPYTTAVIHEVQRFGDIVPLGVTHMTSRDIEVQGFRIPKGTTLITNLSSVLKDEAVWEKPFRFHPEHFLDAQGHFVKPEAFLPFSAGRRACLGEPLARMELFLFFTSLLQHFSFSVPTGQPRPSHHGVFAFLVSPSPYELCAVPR

## CC(C)NC(=O)Cn1c(-c2cccc(Cl)c2)nn(-c2ccc(CCN3CCOCC3)cc2)c1=O [THY1773]
HLMs, with quinidine 1 μmol/L
  CLint: 10.2 ± 0.509 µL/min/mg
PBPK input, experimental data
  fm,CYP2D6: 0.089
By CYP2D6, HLMs, quinidine 1 μmol/L
  fm (fraction metabolized): 0.0893
